Laboratory results published in patent publication US4760180A, “N-terminally substituted dipeptide amides” (priority 1986, dated 1988).
pIC50: −log10 of the molar value. Where two headings read alike, the source gives them in different places.

Assays:
[1] = tested on: phenylbenzoquinone-induced writhing in mice; assay: Writhing assay (phenylbenzoquinone); assay type: in vivo; conditions: 30 min before phenylbenzoquinone i.p.; for Writhing Mouse Oral: screening dose 10 mg/kg p.o. (intragastric); for Writhing Mouse Subc.: screening dose 10 mg/kg s.c.
Experimental: Writhing assay. Male Charles River albino mice (CD-1/HAM/1LR) weighing between 20 and 30 grams were used. Thirty minutes after subcutaneous or intragastric administration of the test compound (0.1 ml/10 gram body weight), 0.025(w/v) phenylbenzoquinone was injected intraperitoneally (0.1 ml/10 gram body weight). Five minutes later, each mouse was placed in a large glass beaker and the number of writhes that occurred in the subsequent ten minutes is counted. A writhe consisted of dorsoflexion of the back, extension of the hindlimbs, and strong contraction of the abdominal musculature. The test compound was considered to have produced analgesia in a mouse if the number of writhes elicited by phenylbenzoquinone was equal to or less than one-half the median number of writhes recorded for the saline-treated group that day. The results were expressed as the number of mice (out of a possible ten) in which the test compound produced analgesia. […] If the initial test dose of 10 mg/kg inhibited writhing in greater than 6 of IO mice, the effect of additional doses was evaluated and an ED50 value was calculated using a maximum likelihood function.

[2] = target: opiate receptors isolated from rat brain; assay type: binding
Experimental: Opiate Binding Assay. The test compounds were evaluated for their ability to displace the binding of ^3 H-Naloxone to opiate receptors isolated from rat brain. Male rats [Crl CD(SD)BR] obtained from Charles River Laboratories (Portage, Mich.) were sacrificed by cervical dislocation. A purified homogenate of receptor membranes was prepared from the brains according to the method described by Chang and Cuatrecasas. (K.-J. Chang and P. Cuatrecasas. Multiple Opiate Receptors: Enkephalins And Morphine Bind To Receptors Of Different Specificity. J. Biol. Chem. 254, 2610-2618 (1979).) The brains were homogenized in 10 volumes of 0.32M sucrose and centrifuged twice at 6,000xg for 15 minutes. Following centrifugation of the supernatants at 40,000xg for 30 minutes, the pellets were resuspended in 5mM Tris-HCl and then centrifuged at 6,000xg. The supernatant was centrifuged at 40,000xg. This resuspended pellet (5mM Tris HCl) was centrifuged twice. The final pellet was resuspended in 2 volumes of 50 mM tris HCl (pH 7.4). The homogenate was assayed for protein content according to the method of Itzhaki and Gill. (R. F. Itzhaki and D. M. Gill. A Micro-Biuret Method for Estimating Proteins. Anal. Biochem. 9, 401-410 (1964).
The binding of the test compounds to the receptor membrane preparation was measured using a modification of the method of Pert and Snyder. (C. B. Pert and S. H. Snyder. Properties of Opiate-Receptor Binding in Rat Brain. Proc. Natl. Acad. Sci. 70, 2243-2247 (1973). The receptor assay was run using final concentrations of 1 nM ^3 -H-Naloxone and 0.5 mg/ml of homogenate protein.
Levorphanol (1×10^-5 M) was used as the displacer for non-specific binding. Final concentration of the test compounds was 10^-5 M. The assay was run in 0.05M tris HCl (pH 7.4). Total assay volume was 1.0 ml.
Samples were incubated at 25° C. for 60 min., filtered over Whatman GF/C glass fiber filters and rinsed twice with 4 ml washes of ice-cold buffer. The filters were air-dried at 50° C. for 30 minutes. After drying, 10 ml of PCS was added to the vial and the radioactivity determined using a tracor analytic Mark III liquid scintillation counter with a counting efficiency of 48.
The IC50 value, the concentration of the test compounds which inhibited ^3 H-Naloxone specific binding to the opiate receptor by 50, were obtained from log-logit plots of concentration-response curves.

rat = conditions: injected directly into the brain of the rat; Belluzi et al., Nature 260, 625 (1976); cited from earlier work
[3] = inhibition of 1 nM 3H-Naloxone specific binding, rat brain membranes, screening concentration 10^-5 M

| Compound | Writhing Mouse Oral [1] | Writhing Mouse Subc. [1] | pIC50 ([2]; read-out: Opiate Binding IC50) | pIC50 [2, 3] | pIC50 ([2]; inhibition of 1 nM 3H-Naloxone specific binding, rat brain membranes, screening concentration 10^-5 M, monohydrochloride) | Opiate Binding IC50 [2] | analgesic activity (rat) |
| --- | --- | --- | --- | --- | --- | --- | --- |
| 0-ethyl-2,6-dimethyl-DL-tyrosyl-N-(3-phenylpropyl)-D-alaninamide, acetate (salt), hydrochloride (4:3:5; [Example 5] | Inactive | Active | 6.89 |  |  |  |  |
| COc1cc(C)c(C[C@H](N)C(=O)N[C@H](C)C(=O)NCCCc2ccccc2)c(C)c1 [Example 3, 0,2,6-trimethyltyrosyl-N-(3-phenylpropyl)-D-alaninamide] | Active | Active |  | 6.38 |  |  |  |
| CNC(Cc1c(C)cc(OCc2ccccc2)cc1C)C(=O)N[C@H](C)C(=O)NCCCc1ccccc1.Cl (mixture of isomers) [Example 12, N,2,6-trimethyl-0-(phenylmethyl)-DL-tyrosyl-N-(3-phenylpropyl)-D-alaninamide, monohydrochloride] | Active | Active |  | 5.44 |  |  |  |
| Cc1cc(O)cc(C)c1CC(N)C(=O)N(C)[C@H](C)C(=O)NCCCc1ccccc1.Cl (mixture of isomers) [Example 15, 2,6-dimethyl-DL-tyrosyl-Nα-methyl-N-(3-phenylpropyl)-D-alaninamide, monohydrochloride] | Active | Active |  | 9.22 |  |  |  |
| CN[C@@H](Cc1c(C)cc(OC)cc1C)C(=O)N[C@H](C)C(=O)NCCCc1ccccc1.Cl [Example 11, N,0,2,6,-tetramethyltyrosyl-N-(3-phenylpropyl)-D-alaninamide, monohydrochloride] | Active | Active |  | 6.21 |  |  |  |
| CN[C@@H](Cc1c(C)cc(O)cc1C)C(=O)N[C@H](C)C(=O)NCCCc1ccccc1.Cl [Example 13, N,2,6-trimethyltyrosyl-N-(3-phenylpropyl)-D-alaninamide, monohydrochloride] | Inactive | Active |  |  | 5.74 |  |  |
| Cc1cc(OCc2ccccc2)cc(C)c1C[C@H](N)C(=O)N[C@H](C)C(=O)NCCCc1ccccc1.Cl [Example 27, 2,6-dimethyl-O-(phenylmethyl)-L-tyrosyl-N-(3-phenylpropyl)-D-alaninamide, monohydrochloride] | Active | Active |  | 6.44 |  |  |  |
| 2,6,dichlorotyrosyl-N-(3-phenylpropyl)-D-alaninamide, monohydrochloride [Example 23] | Active | Active |  | 8.12 |  |  |  |
| CN[C@@H](Cc1c(C)cc(O)cc1C)C(=O)N[C@H](C)C(=O)NCCCc1ccccc1.CN[C@@H](Cc1c(C)cc(O)cc1C)C(=O)N[C@H](C)C(=O)NCCCc1ccccc1.CN[C@@H](Cc1c(C)cc(O)cc1C)C(=O)N[C@H](C)C(=O)NCCCc1ccccc1.CN[C@@H](Cc1c(C)cc(O)cc1C)C(=O)N[C@H](C)C(=O)NCCCc1ccccc1.Cl.Cl.Cl.Cl.Cl [Example 14, N,2,6-trimethyltyrosyl-N-(3-phenylpropyl)-D-alaninamide, hydrochloride (4:5)] | Inactive | Active |  | 6.85 |  |  |  |
| COc1cc(C)c(CC(N)C(=O)N[C@H](C)C(=O)NCCCc2ccccc2)c(C)c1.Cl (mixture of isomers) [Example 2, 0,2,6-trimethyl-DL-tyrosyl-N-(3-phenylpropyl)-D-alaninamide, monohydrochloride] | Active | Active |  | 6.54 |  |  |  |
| Cc1cc(C)c(C[C@H](N)C(=O)N[C@H](C)C(=O)NCCCc2ccccc2)c(C)c1.Cl [Example 25, 2,4,6-trimethylphenylalanyl-N-(3-phenylpropyl)-D-alaninamide, monohydrochloride] | Inactive | Active |  | 5.70 |  |  |  |
| Cc1cc(OC(C)C)cc(C)c1C[C@H](N)C(=O)N[C@H](C)C(=O)NCCCc1ccccc1.Cc1cc(OC(C)C)cc(C)c1C[C@H](N)C(=O)N[C@H](C)C(=O)NCCCc1ccccc1.Cc1cc(OC(C)C)cc(C)c1C[C@H](N)C(=O)N[C@H](C)C(=O)NCCCc1ccccc1.Cc1cc(OC(C)C)cc(C)c1C[C@H](N)C(=O)N[C@H](C)C(=O)NCCCc1ccccc1.Cl.Cl.Cl.Cl.Cl [Example 6, 2,6,dimethyl-0-(1-methylethyl)tyrosyl-N-(3-phenylpropyl)-D-alaninamide, hydrochloride (4:5)] | Inactive | Inactive | 7.33 |  |  |  |  |
| COc1ccc(C[C@H](N)C(=O)N[C@H](C)C(=O)NCCCc2ccccc2)cc1.Cl [Example 9, 0-methyl-L-tyrosyl-N-(3-phenylpropyl)-D-alaninamide, monohydrochloride] | Active | Active |  |  |  | Inactive |  |
| Cc1cc(O)cc(C)c1CC(N)C(=O)N[C@H](C)C(=O)N(C)CCCc1ccccc1.Cl (mixture of isomers) [Example 16, 2,6-dimethyl-DL-tyrosyl-N-methyl-N-(3-phenylpropyl)-D-alaninamide, monohydrochloride] | Inactive | Active |  | 6.52 |  |  |  |
| COc1cc(C)c(C[C@H](N)C(=O)N[C@H](C)C(=O)NCCCc2ccccc2)c(C)c1 [Example 4, 0,2,6-trimethyltyrosyl-N-(3-phenylpropyl)-D-alaninamide] | Active | Active |  | 7.12 |  |  |  |
| Cc1cc(OCc2ccccc2)cc(C)c1C[C@@H](N)C(=O)N[C@H](C)C(=O)NCCCc1ccccc1.Cl [Example 28, 2,6-dimethyl-O-(phenylmethyl)-D-tyrosyl-N-(3-phenylpropyl)-D-alaninamide, hydrochloride] | Active | Active |  | 7.66 |  |  |  |
| methionine enkephalin |  |  |  |  |  |  | weak, fleeting analgesic activity |
